In patent publication US20060292073A1, “Stereoselective Synthesis of Amino Acid Analogs for Tumor Imaging” (priority 2005, published 2006):

What was measured:
[1] = tested on: 9L gliosarcoma tumor / contralateral normal brain; assay: Rodent biodistribution in rats implanted intracranially with 9L gliosarcoma cells; assay type: in vivo, male Fischer rats; conditions: for retention of radioactivity in tumor tissue: 60 minutes after intravenous injection, intracranial 9L tumor; for Ratios of tumor uptake to normal brain uptake: at 60 and 120 minutes after intravenous injection, printed as x:1
Procedure: All animal experiments were carried out under humane conditions and were approved by the Institutional Animal Use and Care Committee (IUCAC) at Emory University. Rat 9L gliosarcoma cells were implanted into the brains of male Fischer rats. Briefly, anesthetized rats placed in a stereotactic head holder were injected with a suspension of 4×10^4 rat 9L gliosarcoma cells (1×10^7 per mL) in a location 3 mm right of midline and 1 mm anterior to the bregma at a depth of 5 mm deep to the outer table. The injection was performed over the course of 2 minutes, and the needle was withdrawn over the course of 1 minute to minimize the backflow of tumor cells. The burr hole and scalp incision were closed, and the animals were returned to their original colony after recovering from the procedure. Intracranial tumors developed that produced weight loss, apathy and hunched posture in the tumor-bearing rats, and the animals were used at 17-19 days after implantation. Of the 30 animals implanted with tumor cells, 25 developed tumors visible to the naked eye upon dissection and were used in the study. FIGS. 1-3 show the results of these studies.
The tissue distribution of radioactivity was determined in 16 normal male Fischer 344 rats (200-250 g) after intravenous injection of ˜85 μCi of [^18F]10 or [^18F]15 in 0.3 mL of sterile water. The animals were allowed food and water ad libitum before the experiment. The tail vein injections were performed in awake animals using a RTV-190 rodent restraint device (Braintree Scientific) to avoid mortality accompanying anesthesia in the presence of an intracranial mass. Groups of four rats were killed at 5 minutes, 30 minutes, 60 minutes and 120 minutes after injection of the dose. The animals were dissected, and selected tissues were weighed and counted along with dose standards in a Packard Cobra II Auto-Gamma Counter. The raw counts were decay corrected, and the counts were normalized as the percent of total injected dose per gram of tissue (% ID/g). A comparison of the uptake of activity in tumor tissue, […] at each time point was analyzed using a 1-way ANOVA (GraphPad Prism software package). FIGS. 1-3 below show the results of these studies.

U87 Glioma tumor cells = assay: Amino acid uptake assay in vitro, U87 tumor cells ± transporter inhibitors; assay type: cell-based, human; conditions: 30 minutes incubation
Procedure: (§1) The tumor cells were initially grown as monolayers in T-flasks containing Dulbecco's Modified Eagle's Medium (DMEM) under humidified incubator conditions (37° C., 5% CO2/95% air). The growth media were supplemented with 10% fetal calf serum and antibiotics (10,000 units/ml penicillin and 10 mg/ml streptomycin). The growth media were replaced three times per week, and the cells were passaged so the cells would reach confluency in a week's time.
(§2) When the monolayers were confluent, cells were prepared for experimentation in the following manner. Growth media were removed from the T-flask, and the monolayer cells were exposed to 1× trypsin:EDTA for ˜1 minute to weaken the protein attachments between the cells and the flask. The flask was then slapped, causing the cells to release. Supplemented media were added to inhibit the proteolytic action of the trypsin, and the cells were aspirated through an 18 Ga needle until they were monodispersed. A sample of the cells was counted under a microscope using a hemocytometer, and the live/dead fraction estimated through trypan blue staining (>98% viability). The remainder of the cells was placed into a centrifuge tube, centrifuged at 75×g for 5 minutes, and the supernatant was removed. The cells were then resuspended in amino-acid/serum-free DMEM salts.
(§3) In this study, approximately 4.55×10^5 cells were exposed to either [^18F]10 (anti-FACBC) or [^18F]15 (syn-FACBC, 5 μCi) in 3 ml of amino acid free media ±transporter inhibitors (10 mM) for 30 minutes under incubator conditions in 12×75 mm glass vials. Each assay condition was performed in duplicate. After incubation, cells were twice centrifuged (75×g for 5 minutes) and rinsed with ice-cold amino-acid/serum-free DMEM salts to remove residual activity in the supernatant. The vials were placed in a Packard Cobra II Auto-Gamma counter, the raw counts decay corrected, and the activity per cell number determined. The data from these studies (expressed as percent uptake relative to control) were graphed using Excel, with statistical comparisons between the groups analyzed using a 1-way ANOVA (GraphPad Prism software package).
(§4) To test the hypothesis that [^18F]10 and [^18F]15 enter cells predominantly via the L-type amino acid transport system, amino acid uptake assays using cultured 9L gliosarcoma and a variety of human cancer cell lines in the presence and absence of two well-described inhibitors of amino acid transport were performed. […] The A- and L-type amino acid transport systems have been implicated in the in vivo uptake of radiolabeled amino acids used for tumor imaging.

[2] = tested on: SKOV3 Ovarian tumor cells; assay: Amino acid uptake assay in vitro, SKOV3 tumor cells ± transporter inhibitors; assay type: cell-based, human; conditions: 30 minutes incubation
Procedure: as §1, §2, §3, §4

[3] = tested on: DU145 Prostate tumor cells; assay: Amino acid uptake assay in vitro, DU145 tumor cells ± transporter inhibitors; assay type: cell-based, human; conditions: 30 minutes incubation
Procedure: as §1, §2, §3, §4

A549 Lung tumor cells = assay: Amino acid uptake assay in vitro, A549 tumor cells ± transporter inhibitors; assay type: cell-based, human; conditions: 30 minutes incubation
Procedure: as §1, §2, §3, §4

[4] = tested on: MB 468 Breast tumor cells; assay: Amino acid uptake assay in vitro, MB 468 tumor cells ± transporter inhibitors; assay type: cell-based, human; conditions: 30 minutes incubation
Procedure: as §1, §2, §3, §4

[5] = tested on: 9L gliosarcoma cells and a variety of human cancer cell lines; assay: Amino acid uptake assay in vitro as summarised in text; assay type: cell-based, rat; human; conditions: for intracellular accumulation: absence of inhibitors, after 30 minutes of incubation; for amino acid transport system used for cell entry: based on inhibition of uptake in the presence of BCH
Procedure: as §1, §2, §3, §4

| Compound | retention of radioactivity in tumor tissue [1] | Ratios of tumor uptake to normal brain uptake [1] | Uptake in tumor cells expressed as percent uptake relative to control (U87 Glioma tumor cells; U87, BCH 10 mM) | Uptake in tumor cells expressed as percent uptake relative to control (U87 Glioma tumor cells; U87, MeAIB 10 mM) | Uptake in tumor cells expressed as percent uptake relative to control (U87 Glioma tumor cells; U87, no inhibitor) | Uptake in tumor cells expressed as percent uptake relative to control ([2]; SKOV3, BCH 10 mM) | Uptake in tumor cells expressed as percent uptake relative to control ([2]; SKOV3, MeAIB 10 mM) | Uptake in tumor cells expressed as percent uptake relative to control ([2]; SKOV3, no inhibitor) | Uptake in tumor cells expressed as percent uptake relative to control ([3]; DU145, BCH 10 mM) | Uptake in tumor cells expressed as percent uptake relative to control ([3]; DU145, MeAIB 10 mM) | Uptake in tumor cells expressed as percent uptake relative to control ([3]; DU145, no inhibitor) | Uptake in tumor cells expressed as percent uptake relative to control (A549 Lung tumor cells; A549, BCH 10 mM) | Uptake in tumor cells expressed as percent uptake relative to control (A549 Lung tumor cells; A549, MeAIB 10 mM) | Uptake in tumor cells expressed as percent uptake relative to control (A549 Lung tumor cells; A549, no inhibitor) | Uptake in tumor cells expressed as percent uptake relative to control ([4]; MB 468, BCH 10 mM) | Uptake in tumor cells expressed as percent uptake relative to control ([4]; MB 468, MeAIB 10 mM) | Uptake in tumor cells expressed as percent uptake relative to control ([4]; MB 468, no inhibitor) | intracellular accumulation [5] | amino acid transport system used for cell entry [5] |
| --- | --- | --- | --- | --- | --- | --- | --- | --- | --- | --- | --- | --- | --- | --- | --- | --- | --- | --- | --- |
| NC1(C(=O)O)CC([18F])C1 (stereo not drawn) [Anti-[^18F]FACBC, trans-(anti-) 1-amino-3-[^18F]fluorocyclobutane-1-carboxylic acid] | high | 6.5 | 1.51% | 3.45% | 3.41% | 1.44% | 6.39% | 4.68% | 4.16% | 13.90% | 16.06% | 2.69% | 11.02% | 12.17% | 4.43% | 14.80% | 15.51% | 0.43 % of the initial dose per million cells | substrates for the L-type amino acid transport system |
| N[C@]1(C(=O)O)C[C@H]([18F])C1 [Syn-[^18F]FACBC, syn-[^18F]1-amino-3-fluorocyclobutane-1-carboxylic acid] | high | 5.3 | 5.00% | 14.80% | 24.77% | 5.87% | 8.48% | 11.67% | 9.11% | 17.16% | 20.27% | 3.85% | 9.61% | 11.91% | 10.93% | 28.25% | 33.53% | 0.50 % of the initial dose per million cells | substrates for the L-type amino acid transport system |
